What was measured:
MES-SA/Dx5 = test: Antiproliferative activity against human MES-SA/Dx5 cells; assay type: functional
NCI/ADR-RES = test: Antiproliferative activity against human NCI/ADR-RES cells; assay type: functional
KM12 = test: Antitumor activity against human KM12 cells; assay type: functional, cell-based
NCI-H460 [1] = test: Antitumor activity against human NCI-H460 cells; assay type: functional, cell-based
A549 = test: Antitumor activity against human A549 cells; assay type: functional, cell-based
[2] = target: T1, Proto-oncogene tyrosine-protein kinase Src (Homo sapiens, UniProt P12931); test: Inhibition of human recombinant pp60c-src expressed in baculovirus infected Sf9 insect cells using poly(Glu,Tyr) 4:1 as substrate after 15 mins
T1 sequence (P12931 2-536 limits assumed): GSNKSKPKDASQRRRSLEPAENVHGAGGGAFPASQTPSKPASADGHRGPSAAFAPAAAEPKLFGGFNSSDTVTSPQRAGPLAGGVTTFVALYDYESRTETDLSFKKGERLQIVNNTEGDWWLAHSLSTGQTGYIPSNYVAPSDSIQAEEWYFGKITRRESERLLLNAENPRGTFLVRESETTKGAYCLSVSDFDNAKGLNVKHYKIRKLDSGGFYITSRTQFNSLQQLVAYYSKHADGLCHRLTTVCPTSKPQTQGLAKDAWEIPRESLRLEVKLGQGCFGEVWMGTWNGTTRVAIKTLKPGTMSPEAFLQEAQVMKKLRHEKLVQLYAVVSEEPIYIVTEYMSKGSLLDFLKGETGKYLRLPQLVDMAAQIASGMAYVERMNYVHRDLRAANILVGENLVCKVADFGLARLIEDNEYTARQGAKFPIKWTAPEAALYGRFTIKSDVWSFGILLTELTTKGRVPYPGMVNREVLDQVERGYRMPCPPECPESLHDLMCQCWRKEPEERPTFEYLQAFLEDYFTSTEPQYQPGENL

[3] = target: T1, Proto-oncogene tyrosine-protein kinase Src; test: Inhibition of human c-SRC expressed in mouse NIH/3T3 cells assessed as reduction in cell growth; assay type: cell-based
[4] = Inhibition of human c-SRC expressed in mouse NIH/3T3 cells assessed as reduction in BrdU incorporation after 24 hrs by ELISA
MOLT-4 = test: Antiproliferative activity against human MOLT4 cells; assay type: functional
Jurkat = test: Antiproliferative activity against human Jurkat cells; assay type: functional
NCI-H460 [5] = test: Antiproliferative activity against human H460 cells; assay type: functional; details: Homo sapiens, NCI-H460
NCI-H226 = test: Antiproliferative activity against human NCI-H226 cells; assay type: functional; details: Homo sapiens, NCI-H226
SW-620 = test: Antiproliferative activity against human SW620 cells; assay type: functional
SW1088 = test: Antiproliferative activity against human SW1088 cells; assay type: functional
Insulin receptor [6] = target: T2, Insulin receptor (Homo sapiens, UniProt P06213); test: Non-competitive inhibition of human placental insulin receptor expressed in CHO cell membrane assessed as decrease in insulin-stimulated A2 phosphorylation preincubated for 15 mins followed by substrate addition and measured after 15 mins in presence of [gamma-32P]ATP by Dixon plot analysis; assay type: cell-based
T2 sequence (P06213 28-758 limits assumed): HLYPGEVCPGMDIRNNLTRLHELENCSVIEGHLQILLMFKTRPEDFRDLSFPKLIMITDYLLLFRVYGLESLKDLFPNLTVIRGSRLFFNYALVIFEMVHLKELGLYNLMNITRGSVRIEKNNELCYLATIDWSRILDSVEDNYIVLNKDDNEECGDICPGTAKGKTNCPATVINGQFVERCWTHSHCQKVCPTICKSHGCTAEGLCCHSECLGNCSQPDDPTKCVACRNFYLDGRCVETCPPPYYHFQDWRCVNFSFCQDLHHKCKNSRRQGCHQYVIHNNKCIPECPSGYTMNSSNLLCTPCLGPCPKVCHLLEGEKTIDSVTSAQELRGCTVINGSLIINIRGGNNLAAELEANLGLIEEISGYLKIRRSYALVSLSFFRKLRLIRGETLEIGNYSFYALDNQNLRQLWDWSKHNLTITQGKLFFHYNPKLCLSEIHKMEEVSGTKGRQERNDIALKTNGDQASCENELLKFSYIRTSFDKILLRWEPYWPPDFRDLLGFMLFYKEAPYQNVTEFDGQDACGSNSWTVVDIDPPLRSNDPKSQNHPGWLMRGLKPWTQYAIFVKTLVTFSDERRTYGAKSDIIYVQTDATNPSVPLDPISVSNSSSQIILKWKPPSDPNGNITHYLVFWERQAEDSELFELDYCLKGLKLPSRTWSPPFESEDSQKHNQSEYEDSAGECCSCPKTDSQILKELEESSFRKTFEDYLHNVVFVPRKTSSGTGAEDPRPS
T2 sequence (P06213 763-1382 limits assumed): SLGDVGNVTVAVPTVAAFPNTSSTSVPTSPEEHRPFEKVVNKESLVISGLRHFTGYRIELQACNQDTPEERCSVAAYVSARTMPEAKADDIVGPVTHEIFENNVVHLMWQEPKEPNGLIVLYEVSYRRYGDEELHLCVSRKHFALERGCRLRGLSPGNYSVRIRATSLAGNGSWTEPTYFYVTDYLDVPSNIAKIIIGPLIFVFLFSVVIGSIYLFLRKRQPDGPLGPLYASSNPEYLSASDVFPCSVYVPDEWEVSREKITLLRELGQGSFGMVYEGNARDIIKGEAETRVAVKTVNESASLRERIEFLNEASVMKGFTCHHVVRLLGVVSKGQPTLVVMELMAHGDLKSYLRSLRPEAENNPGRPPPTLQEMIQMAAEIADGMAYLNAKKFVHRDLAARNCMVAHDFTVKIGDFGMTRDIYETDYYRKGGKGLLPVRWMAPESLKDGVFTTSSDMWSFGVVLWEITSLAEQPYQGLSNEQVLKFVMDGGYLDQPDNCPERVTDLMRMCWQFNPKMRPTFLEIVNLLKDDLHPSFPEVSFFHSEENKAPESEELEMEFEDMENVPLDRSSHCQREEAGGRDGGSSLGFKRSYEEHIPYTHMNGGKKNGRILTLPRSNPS

Insulin receptor [7] = target: T2, Insulin receptor; test: Inhibition of human placental insulin receptor expressed in CHO cells assessed as decrease in insulin-stimulated [3H]-2-deoxyglucose uptake preincubated for 1 hr; assay type: cell-based
[8] = Oral bioavailability in mouse; assay type: ADME, organism-based; details: in vivo
[9] = Ratio of AUC in brain to plasma of mouse at 20 mg/kg, po; assay type: ADME, organism-based; details: brain and plasma, read-out: Ratio AUC
[10] = Oral bioavailability in mouse at 20 mg/kg; assay type: ADME, organism-based; details: in vivo
[11] = target: Proto-oncogene tyrosine-protein kinase Src (Mus musculus, UniProt P05480); test: Inhibition of Src autophosphorylation in mouse GL261 cells; assay type: cell-based
Sequence of Proto-oncogene tyrosine-protein kinase Src (Mus musculus, UniProt P05480) (P05480 2-535 limits assumed): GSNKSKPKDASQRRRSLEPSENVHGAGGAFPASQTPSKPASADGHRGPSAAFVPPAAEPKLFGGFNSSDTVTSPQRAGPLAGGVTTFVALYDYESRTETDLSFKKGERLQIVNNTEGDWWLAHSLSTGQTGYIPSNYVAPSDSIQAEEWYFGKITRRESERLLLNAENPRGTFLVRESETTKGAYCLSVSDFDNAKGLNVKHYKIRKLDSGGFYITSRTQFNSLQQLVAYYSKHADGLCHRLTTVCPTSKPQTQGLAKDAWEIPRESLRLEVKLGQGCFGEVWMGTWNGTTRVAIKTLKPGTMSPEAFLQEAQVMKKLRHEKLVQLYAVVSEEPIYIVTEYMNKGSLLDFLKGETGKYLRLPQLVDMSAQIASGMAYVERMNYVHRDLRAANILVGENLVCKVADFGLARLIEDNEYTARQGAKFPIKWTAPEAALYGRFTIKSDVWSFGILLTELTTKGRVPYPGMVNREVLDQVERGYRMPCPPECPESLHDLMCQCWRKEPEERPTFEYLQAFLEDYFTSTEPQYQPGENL

[12] = target: T1, Proto-oncogene tyrosine-protein kinase Src; test: Inhibition of Src (unknown origin)
Daoy = test: Antiproliferative activity against human DaOY cells; assay type: functional
SK-N-MC = test: Antiproliferative activity against human SK-N-MC cells; assay type: functional
LN-18 = test: Antiproliferative activity against human LN18 cells; assay type: functional
SK-N-FI = test: Antiproliferative activity against human SK-N-FI cells; assay type: functional
U-87 MG = test: Antiproliferative activity against human U87 cells; assay type: functional, U-87MG ATCC
T98G = test: Antiproliferative activity against human T98G cells; assay type: functional
U-118-MG = test: Antiproliferative activity against human U118MG cells; assay type: functional
U138-MG = test: Antiproliferative activity against human U138MG cells; assay type: functional
[13] = Antiproliferative activity against human U373 cells; assay type: functional, U-373MG ATCC; details: U373 MG
[14] = Half life in mouse; assay type: ADME, organism-based; details: in vivo
GL261 = test: Antitumor activity against mouse GL261 cells implanted in mouse assessed as incidence of long term survival (>100 days) at 30 mg/kg, po qd relative to control; assay type: functional
GL261 (Mus musculus) = test: Antiproliferative activity against mouse GL261 cells

For `CC(=O)O[C@H]1C(=O)[C@@]2(C)[C@H]([C@H](OC(=O)c3ccccc3)[C@]3(O)C[C@H](OC(=O)[C@H](O)[C@@H](NC(=O)c4ccccc4)c4ccccc4)C(C)=C1C3(C)C)[C@]1(OC(C)=O)CO[C@@H]1C[C@@H]2O` [PACLITAXEL], the GI50 (MES-SA/Dx5) was 1800 nM and the GI50 (NCI/ADR-RES) was 5940 nM.

Molecule `O=C(NCc1cccc(O)c1)c1cc2cc(O)ccc2[nH]1` has an IC50 (KM12) of 4200 nM, an IC50 (NCI-H460 [1]) of 59000 nM and an IC50 (A549) of 41000 nM.

`COc1cc2c(Nc3c(Cl)ccc4c3OCO4)ncnc2cc1OCCCN1CCCCC1` showed an IC50 [2] of under 4 nM, a GI50 [3] of 87 nM and an IC50 [4] of 110 nM.

Work on `Cc1nc(Nc2ncc(C(=O)Nc3c(C)cccc3Cl)s2)cc(N2CCN(CCO)CC2)n1.O` [DASATINIB] yielded a GI50 (MOLT-4) of 644 nM, a GI50 (Jurkat) of 8 nM and a GI50 (NCI-H460 [5]) of 90 nM. For the same molecule, the GI50 (NCI-H226) was 163 nM, the GI90 (SW-620) was 2940 nM and the GI50 (SW-620; Homo sapiens, SW-620) was 2420 nM. The GI50 (SW1088) was 898 nM.

Work on `O=P(O)(O)C(O)c1ccc2ccccc2c1` (stereo not given) yielded a Ki (Insulin receptor [6]) of 95000 nM and an IC50 (Insulin receptor [7]) of 10000 nM.

For `O=C(Cc1ccc(-c2ccc(N3CCOCC3)cc2)cn1)NCc1cccc(F)c1` [KX2-361], the bioavailability [8] was 40%, the Kp [9] was 1.16 and the bioavailability [10] was 40%. It also gave an IC50 [11] of 60 nM, an IC50 [12] of 67000 nM and a GI50 (Daoy) of 16 nM. It also gave a GI50 (SK-N-MC) of 8 nM, a GI50 (SW1088) of 26 nM and a GI50 (LN-18) of 2.9 nM. The GI50 (SK-N-FI) was 11 nM, the GI50 (U-87 MG) was 76 nM and the GI50 (T98G) was 14 nM. For the same molecule, the GI50 (U-118-MG) was 29 nM, the GI50 (U138-MG) was 51 nM and the GI50 [13] was 54 nM. For the same molecule, the half-life [14] was 2.5 h, the Activity (GL261) was 30% and the GI50 (GL261 (Mus musculus)) was 57 nM.

Reference: ChEMBL document CHEMBL4371003, “Discovery of Novel Dual Mechanism of Action Src Signaling and Tubulin Polymerization Inhibitors (KX2-391 and KX2-361)” (J Med Chem, 2018)
